Assay results: US20180371256A1, “BENZOCOUMARIN-BASED TWO-PHOTON ABSORBING FLUORESCENT DYE” (POSTECH ACADEMY-INDUSTRY FOUNDATION, priority 2017, published 2018)
“Also recorded” adds a separate entry of the source.

Assays:
[1] = Fluorescence spectra of benzocoumarin-based fluorescent dyes; type: physicochemical; conditions: 10 μM dye in HEPES buffer, dioxane, ethanol, acetonitrile, dichloromethane, dimethylsulfoxide or toluene (1% DMSO); compared with Compounds 1c and 1g to 1l (FIG. 2)
From the text: The inventors confirmed absorption characteristics of representative compounds among Compounds 1g to 1k, which are two-photon absorbing near-infrared fluorescent dyes, and Compounds 1a to 1f and 1l to 4g, which are two-photon absorbing fluorescent dyes, of the present invention, and the results are shown in FIG. 2.
Specifically, to confirm the characteristics of fluorescent spectra of two-photon absorbing near-infrared fluorescent dyes, the inventors measured fluorescence spectra (measured using a photon technical international fluorescence system) by charging a quartz cell with a 1-cm path length with 4-(2-hydroxyethyl)-1-piperazineethanesulfonic acid (HEPES) buffer, […], dioxane, ethanol, acetonitrile, dichloromethane, dimethylsulfoxide, a toluene solution (containing 1% DMSO), which contains 10 μM each of Compounds 1a to 4g, and the wavelength of maximum absorbance is shown in FIG. 2.

[2] = UV/Vis absorbance spectra of benzocoumarin-based fluorescent dyes (wavelength of maximum absorbance); type: physicochemical; conditions: 10 μM dye in HEPES buffer, PBS buffer, dioxane, ethanol, acetonitrile, dichloromethane, dimethylsulfoxide or toluene (1% DMSO); compared with Compounds 1c and 1g to 1l (FIG. 1)
From the text: The inventors confirmed absorption characteristics of representative compounds among Compounds 1g to 1k, which are two-photon absorbing near-infrared fluorescent dyes, and Compounds 1a to 1f and 1l to 4g, which are two-photon absorbing fluorescent dyes, of the present invention, and the results are shown in FIG. 1.
Specifically, to confirm the characteristics of UV/Vis absorbance spectra of benzocoumarin-based near-infrared fluorescent dyes and derivatives thereof, the inventors measured UV/Vis absorbance spectra (measured using a HP8453 UV/Vis absorbance spectrophotometer) by charging a quartz cell with a 1-cm path length with 4-(2-hydroxyethyl)-1-piperazineethanesulfonic acid (HEPES) buffer, phosphate-buffered saline (PBS) buffer, dioxane, ethanol, acetonitrile, dichloromethane, dimethylsulfoxide, or a toluene solution (containing 1% DMSO), which contains 10 μM each of Compounds 1a to 4g, and the wavelength of maximum absorbance is shown in FIG. 1.

[3] = test system: mouse kidney tissue; test: Two-photon fluorescence microscopy imaging of mouse kidney tissue slices treated with dye; set-up: species or system mouse (Balb/C); conditions: 10 μM
Experimental: The inventors observed fluorescent changes by two-photon microscopy after mouse tissue was treated with Compound 1g of the present invention, and the result is shown in FIG. 3.
Specifically, to observe a two-photon microscopy image of mouse tissue treated with Compound 1g, kidney tissue of a Balb/C type mouse (6 weeks old) was used, and an experiment was carried out under a light-protected condition (dark room). The mouse kidney tissue was dissected and washed with a PBS buffer solution, and then each organ was frozen over dry-ice for 5 minutes. The frozen organs were crushed with a hammer, and then a tissue slice sample was prepared to a thickness of 16 μm using a cutter (Cryostat machine, Leica, CM3000 model). […] The tissue slice sample was put on a specimen block (Paul Marienfeld GMbH & Co.), and the specimen block was immersed in 4% paraformaldehyde for 10 minutes and washed with a PBS buffer solution, and then the tissue was fixed again using a mount solution (Gel Mount, BIOMEDA). The prepared tissue slice sample was immersed in a PBS buffer solution containing Compound 1g and acedan or IminoPOS at a concentration of 10 μM for 10 minutes, washed with a PBS buffer solution three times, and then fixed with 4% paraformaldehyde, followed by observation of fluorescence. […]

With `O=c1oc2cc3cc(N4CCCC4)ccc3cc2cc1-c1ccncc1` [Compound 1a, 3-(pyridine-4-yl)-8-(pyrrolidine-1-yl)-2H-benzo[g]chromene-2-one] as the compound, how does the “wavelengths of maximum absorbance (fluorescence spectra, FIG. 2)” value (shortened to “wavelengths … (fluorescence spectra, FIG. 2)”) [1] read?
Its value is “did not have a significant difference”.

And the “wavelengths of maximum absorbance” value [2]?
Its value is “did not have a significant difference”.

For `CNc1ccc2cc3cc(-c4ccncc4)c(=O)oc3cc2c1` [Compound 1d, 8-(methylamino)-3-(pyridine-4-yl)-2H-benzo[g]chromene-2-one], which “wavelengths … (fluorescence spectra, FIG. 2)” value [1] is on record?
Its value is “did not have a significant difference”.

And the “wavelengths of maximum absorbance” value [2]?
The value was “did not have a significant difference”.

What does the source list for `C=CCNc1ccc2cc3cc(-c4ccncc4)c(=O)oc3cc2c1` [Compound 1e, 8-(allylamino)-3-(pyridine-4-yl)-2H-benzo[g]chromene-2-one]?
wavelengths of maximum absorbance (fluorescence spectra, FIG. 2) [1]: did not have a significant difference; wavelengths of maximum absorbance [2]: did not have a significant difference

With `CN(C)c1ccc2cc3cc(-c4ccncc4)c(=O)oc3cc2c1` [Compound 1b, 8-(dimethylamino)-3-(pyridine-4-yl)-2H-benzo[g]chromene-2-one] as the compound, how does the “wavelengths … (fluorescence spectra, FIG. 2)” value [1] read?
The value was “did not have a significant difference”.

And the “wavelengths of maximum absorbance” value [2]?
Its value is “did not have a significant difference”.

Which “quality of two-photon fluorescence image” value ([3]; depths 25, 125, 175 μm, compared to acedan or IminoPOS (conventional two-photon dyes), FIG. 3c) does the source give for `C[n+]1ccc(-c2cc3cc4ccc(N5CCCC5)cc4cc3oc2=O)cc1.[OH-]` [Compound 1g, 1-methyl-4-(2-oxo-8-(pyrrolidine-1-yl)-2H-benzo[g]chromene-3-yl)pyridinium trifluoromethanesulfonate] here?
The value was “superior fluorescence image; also recorded: high-definition and high-contrast image”.

And the “signal/noise (S/N) ratio of two-photon tissue image” value ([3]; two-photon excitation 900 nm, surface layer to middle depth (50 to 150 μm), compared to acedan (800 nm) and IminoPOS (850 nm), FIG. 3b)?
The value was “increased”.

With `Nc1ccc2cc3cc(-c4ccncc4)c(=O)oc3cc2c1` [Compound 1f, 8-amino-3-(pyridine-4-yl)-2H-benzo[g]chromene-2-one] as the compound, how does the “wavelengths … (fluorescence spectra, FIG. 2)” value [1] read?
Its value is “did not have a significant difference”.

And the “wavelengths of maximum absorbance” value [2]?
Its value is “did not have a significant difference”.
